Measured values: patent US9416128B2, “Fused heterocyclic compounds as ion channel modulators” (Gilead Sciences, Inc., priority 2013, dated 2016)

What was measured:
[1] = biological target: wild-type human cardiac sodium channel, hNaV 1.5 (Late INa) (Homo sapiens, UniProt Q14524); assay: Late INa screening assay (whole cell patch clamp, QPatch, Tefluthrin-induced late current); type: cell-based; settings: HEK293, % inhibition (percent block of late INa) at 1 uM; HEK293 hNaV1.5; 10 μM Tefluthrin; read-out: Nav1.5 Late INa 1 uM
Sequence of wild-type human cardiac sodium channel, hNaV 1.5 (Late INa) (Q14524 whole entry): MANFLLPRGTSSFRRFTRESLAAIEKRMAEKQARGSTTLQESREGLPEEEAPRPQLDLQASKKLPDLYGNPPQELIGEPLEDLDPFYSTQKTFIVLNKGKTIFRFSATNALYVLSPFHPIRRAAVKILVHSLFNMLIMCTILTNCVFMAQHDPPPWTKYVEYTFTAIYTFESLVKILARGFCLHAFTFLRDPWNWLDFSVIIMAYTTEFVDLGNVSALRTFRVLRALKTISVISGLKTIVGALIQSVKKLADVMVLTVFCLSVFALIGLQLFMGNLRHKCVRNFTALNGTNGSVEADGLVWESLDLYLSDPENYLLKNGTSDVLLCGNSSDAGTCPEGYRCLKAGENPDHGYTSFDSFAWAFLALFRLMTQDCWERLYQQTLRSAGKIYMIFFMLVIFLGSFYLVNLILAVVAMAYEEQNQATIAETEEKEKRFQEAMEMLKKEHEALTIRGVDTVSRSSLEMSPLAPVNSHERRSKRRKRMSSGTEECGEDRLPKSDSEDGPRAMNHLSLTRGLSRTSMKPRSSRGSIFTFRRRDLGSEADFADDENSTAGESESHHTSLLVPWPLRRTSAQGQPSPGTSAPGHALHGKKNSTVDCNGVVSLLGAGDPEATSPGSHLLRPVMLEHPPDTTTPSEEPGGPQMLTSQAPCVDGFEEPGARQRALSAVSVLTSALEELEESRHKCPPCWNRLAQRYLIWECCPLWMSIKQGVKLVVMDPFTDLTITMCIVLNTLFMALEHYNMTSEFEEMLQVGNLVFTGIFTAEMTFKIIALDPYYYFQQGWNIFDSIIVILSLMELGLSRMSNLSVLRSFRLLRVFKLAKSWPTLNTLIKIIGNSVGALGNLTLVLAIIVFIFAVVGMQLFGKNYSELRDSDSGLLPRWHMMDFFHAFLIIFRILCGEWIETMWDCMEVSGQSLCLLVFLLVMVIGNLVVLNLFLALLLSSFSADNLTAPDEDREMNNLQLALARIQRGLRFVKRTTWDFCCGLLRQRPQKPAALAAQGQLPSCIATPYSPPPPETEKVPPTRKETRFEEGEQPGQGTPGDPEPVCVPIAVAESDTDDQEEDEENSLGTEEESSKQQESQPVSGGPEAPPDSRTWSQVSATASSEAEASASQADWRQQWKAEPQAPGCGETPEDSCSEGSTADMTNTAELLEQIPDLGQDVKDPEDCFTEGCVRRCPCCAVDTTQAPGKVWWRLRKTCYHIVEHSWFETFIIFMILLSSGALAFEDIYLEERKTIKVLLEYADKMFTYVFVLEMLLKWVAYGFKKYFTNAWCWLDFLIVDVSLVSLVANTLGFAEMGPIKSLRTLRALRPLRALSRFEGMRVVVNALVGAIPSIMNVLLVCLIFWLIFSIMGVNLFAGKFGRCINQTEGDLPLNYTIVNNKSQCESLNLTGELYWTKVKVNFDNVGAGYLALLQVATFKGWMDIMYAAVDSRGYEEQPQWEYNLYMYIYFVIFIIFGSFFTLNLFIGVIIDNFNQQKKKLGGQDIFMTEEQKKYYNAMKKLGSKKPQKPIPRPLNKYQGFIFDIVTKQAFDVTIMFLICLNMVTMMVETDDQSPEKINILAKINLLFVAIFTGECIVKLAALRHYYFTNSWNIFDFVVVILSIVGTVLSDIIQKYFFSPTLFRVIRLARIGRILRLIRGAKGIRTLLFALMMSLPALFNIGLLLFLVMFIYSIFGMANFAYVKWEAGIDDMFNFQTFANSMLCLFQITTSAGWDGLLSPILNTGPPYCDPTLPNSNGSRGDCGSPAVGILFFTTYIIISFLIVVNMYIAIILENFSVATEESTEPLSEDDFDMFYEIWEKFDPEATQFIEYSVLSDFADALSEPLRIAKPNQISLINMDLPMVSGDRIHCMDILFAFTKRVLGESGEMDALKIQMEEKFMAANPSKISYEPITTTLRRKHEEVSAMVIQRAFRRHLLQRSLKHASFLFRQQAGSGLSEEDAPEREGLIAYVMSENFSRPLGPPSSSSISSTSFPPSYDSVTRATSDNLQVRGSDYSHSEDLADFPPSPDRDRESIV
Experimental: The cardiac late sodium current (Late INa) and peak sodium current (Peak INa) assays are performed on an automated electrophysiology platform, QPatch 16X or QPatch HT (Sophion Bioscience, Copenhagen, Denmark) using the whole cell patch clamp technique to measure currents through the cell membrane. The assay uses an HEK293 (human embryonic kidney) cell line heterologously expressing the wild-type human cardiac sodium channel, hNaV 1.5, purchased from Millipore (Billerica, Mass.). No beta subunits were coexpressed with the Na channel alpha subunit. Cells are maintained with standard tissue culture procedures and stable channel expression is maintained with 400 μg/mL Geneticin in the culture medium. Experiments are carried out at 23-25° C.
For both the Late INa and Peak INa assays, series resistance compensation is set to 100% and series resistance and whole-cell compensation are performed automatically. Currents are digitized at 25 kHz and low-pass filtered at 5 kHz and stored in the Sophion Bioscience Oracle database (Sophion Bioscience, Copenhagen, Denmark). Analysis is performed using QPatch Assay software and data are compiled in Excel 2010 (Microsoft, Seattle, Wash., U.S.A.).
Compound stocks are routinely made by the Gilead Sample Bank in vials to 10 mM in dimethyl sulfoxide (DMSO). In some cases, when compounds are not soluble in DMSO, they are made in 100% ethanol. Stocks are sonicated as necessary. The extracellular solution for screening Late INa is composed of: 140 mM NaCl, 4 mM KCl, 1.8 mM CaCl2, 1 mM MgCl2, 10 mM HEPES and 10 mM Dextrose with pH adjusted to 7.35 using NaOH. The intracellular solution contains: 105 mM CsF, 20 mM CsCl, 10 NaF, 2 mM EGTA, 10 mM HEPES and 10 mM Dextrose with pH adjusted to 7.35 with CsOH. Compounds are diluted in extracellular solution using a MicroLab Nimbus (Hamilton Robotics, Reno, Nev.) to between 0.3 and 3 μM in glass vials and transferred to glass well plates before robotic addition to the cells. The 0 mM Na extracellular solution (0Na-ECF) used at the end of each experiment for the Late INa and Peak INa assays to measure baseline current contains: 140 Choline-Cl; 4 mM KCl, 1.8 mM CaCl2; 1 mM MgCl2; 10 mM HEPES and 10 mM Dextrose with pH was adjusted to 7.35 with CsOH.
For the Late INa assay, sodium channels are activated every 10 seconds (0.1 Hz) by depolarizing the cell membrane to −20 mV for 250 milliseconds (ms) from a holding potential of −120 mV.
Compounds were tested to determine their activity in blocking the late sodium current. Late INa was generated by adding 10 μM Tefluthrin (pyrethroid) to the extracellular solution. For the purposes of the screening, Late INa is defined as the mean current between 240 ms and 265 ms during the voltage step to −20 mV. After establishing the whole cell recording configuration, Late INa activator is added to each well 4 times over a 15 minute period so that the late component of the Na current reaches a stable value. Compounds were then added (typically at 0.3 or 1 μM), in the presence of the Late INa activator, with 3 additions over the course of 5 minutes. Measurements were made at the end of exposure to the third compound addition and values were normalized to the current level when all Na^+ was removed from the extracellular solution after two additions of 0Na-ECF.
Results are reported as percent block of late INa and results were analyzed by incorporating rundown correction for the Late INa.

hNaV1.1 (SCN1A) = hNaV1.1 (SCN1A) (Homo sapiens, UniProt P35498); assay: Use-dependent inhibition of the CNS NaV1.1 sodium channel; type: cell-based; settings: % inhibition, 25 Hz; for inhibition at 1 µM: use-dependent block at 1 uM, read-out: Nav1.1 UDB 25 Hz 1 uM; for inhibition at 10 µM: use-dependent block at 10 uM, read-out: Nav1.1 UDB 25 Hz 10 uM
Experimental: HEK-293 cells stably expressing wild-type (WT) hNaV1.1 (SCN1A, NCBI# AB09354) were obtained from Millipore (Cat. # CYL3009) were used to record INa. Cells are maintained with standard tissue culture procedures and stable channel expression is maintained with 400 ug/mL G418 in the culture medium. Unless otherwise noted, all reagents are purchased from Sigma-Aldrich (St Louis, Mo., U.S.A.).
Assays measuring Use-Dependent Block (UDB) of NaV1.2 are performed on an automated electrophysiology platform, QPatch 16X or QPatch HT (Sophion Bioscience, Copenhagen, Denmark), using the whole cell patch clamp technique to measure currents through the cell membrane. Series resistance compensation is set to 100% and series resistance and whole-cell compensation are performed automatically. Currents stored in the Sophion Bioscience Oracle database (Sophion Bioscience, Copenhagen, Denmark). Analysis is performed using QPatch Assay software and data are compiled in Excel 2010 (Microsoft, Seattle, Wash., U.S.A.).
The internal (pipette) solution consists of (in mM) 105 CsF, 10 NaF, 20 CsCl, 2 EGTA, 10 HEPES, 10 Dextrose with a pH of 7.35 and osmolarity of 300 mOsmol/kg. The external (bath) solution contains in (mM): 145 NaCl, 4 KCl, 1.8 CaCl2, 1 MgCl2, 10 dextrose, 10 HEPES, with a pH of 7.35 and osmolarity of 310 mOsmol/kg. Experiments are carried out at 23-25° C.
Compound stocks are routinely made by the Gilead Sample Bank in vials to 10 mM in dimethyl sulfoxide (DMSO). In some cases, when compounds are not soluble in DMSO, they are made in 100% ethanol. Stocks are sonicated as necessary. […]
Cells are allowed to stabilize for 10 min after establishment of the whole-cell configuration before current is measured. The test compound is applied 2 times at 60 second intervals. After the second compound addition, a 200 second wait period was imposed to allow for equilibration.
Leak currents are subtracted by using an online P/4 procedure and all currents are low-pass Bessel filtered at 5 kHz and digitized at […].
Use-dependent block of NaV1.2 peak current is measured during pulse number 20 of a voltage pulse train (0 mV, 20 ms, 20 pulses, 25 Hz) from a holding potential of −120 mV. Currents are normalized to the peak current recorded in response to the first pulse in each frequency train. The voltage protocol for UDB was performed in the absence and presence of compound and percentage inhibition was calculated with respect to the compound free condition. Results are presented as mean percentage inhibition and data analysis is performed using QPatch Assay Software 4.0, and Excel 2002 (Microsoft, Seattle, Wash., U.S.A.).

inhibition at 1 µM (hNaV1.1 (SCN1A)) [%]	inhibition at 10 µM (hNaV1.1 (SCN1A)) [%]	SMILES	inhibition at 1 µM [1] [%]
49.9	76.5	O=C1Oc2ccc(-c3ccc(C(F)(F)F)cc3)cc2CN1Cc1ncccn1 [Example 4, 3-(pyrimidin-2-ylmethyl)-6-(4-(trifluoromethyl)phenyl)-3,4-dihydro-2H-benzo[e][1,3]oxazin-2-one]	53.9
21.5	82.4	CC1c2cc(-c3ccc(C(F)(F)F)cc3)ccc2OC(=O)N1Cc1ncccn1 (stereo not drawn) [Example 49, 4-methyl-3-(pyrimidin-2-ylmethyl)-6-(4-(trifluoromethyl)phenyl)-3,4-dihydro-2H-benzo[e][1,3]oxazin-2-one]	41.5
42.6	91.6	O=C1Oc2ccc(-c3ccc(OC(F)(F)F)cc3)cc2CN1Cc1ncccn1 [Example 3, 3-(pyrimidin-2-ylmethyl)-6-(4-(trifluoromethoxy)phenyl)-3,4-dihydro-2H-benzo[e][1,3]oxazin-2-one]	51.8

Second part, the molecule before the results:

SMILES	inhibition at 1 µM (hNaV1.1 (SCN1A)) [%]	inhibition at 10 µM (hNaV1.1 (SCN1A)) [%]	inhibition at 1 µM [1] [%]
Cc1nccc(CN2Cc3cc(-c4ccc(OC(F)(F)F)cc4)ccc3OC2=O)n1 [Example 15, 3-((2-methylpyrimidin-4-yl)methyl)-6-(4-(trifluoromethoxy)phenyl)-3,4-dihydro-2H-benzo[e][1,3]oxazin-2-one]	–	–	30
O=C1Oc2cc3c(cc2CN1Cc1ncccn1)-c1ccc(OC(F)(F)F)cc1C3 [Example 60, 3-(pyrimidin-2-ylmethyl)-8-(trifluoromethoxy)-3,4-dihydrofluoreno[3,2-e][1,3]oxazin-2(10H)-one]	–	–	11.2
CC1c2cc(-c3cccc(Oc4ccccc4)c3)ccc2OC(=O)N1Cc1ncccn1 (stereo not drawn) [Example 51, 4-methyl-6-(3-phenoxyphenyl)-3-(pyrimidin-2-ylmethyl)-3,4-dihydro-2H-benzo[e][1,3]oxazin-2-one]	–	–	41.6
